This passage reports IC50 results from paper PMC6437697 (Journal of Medicinal Chemistry, 2019).

SMILES strings stand for the structures. Where only a bound is given, the exact number is not on record here.

The subject of data set [1] is HEK293 cells stably expressing an XBP1u-luciferase mRNA reporter. The conditions noted are these: read-out: HEK293 cytotoxicity (CellTitreBlue) IC50.
For data set [2], the target named is recombinant dephosphorylated G547 IRE1α KEN domain (Homo sapiens, UniProt O75460). Briefly: IRE1α ATP-site binding assay (LanthaScreen tracer displacement). The conditions noted are these: read-out: IRE1a ATP site binding (LanthaScreen IC50 nM).
Data set [3] concerns IRE1α-dependent splicing of XBP1u-luciferase mRNA reporter in HEK293 cells. Briefly: XBP1 luciferase fusion mRNA splicing reporter in HEK293 cells. In kind it is cell-based, human. The conditions noted are these: HEK293TN; read-out: XBP1 reporter cleavage in HEK293TN IC50.
The target in data set [4] is recombinant G547 IRE1α KEN domain (Homo sapiens, UniProt O75460). Put plainly: IRE1α S724 autophosphorylation assay (DELFIA). The conditions noted are these: read-out: IRE1a autophosphorylation inhibition (DELFIA IC50 nM). The data set is classed as biochemical.
recombinant G547 IRE1α KEN domain, sequence (O75460 547-977): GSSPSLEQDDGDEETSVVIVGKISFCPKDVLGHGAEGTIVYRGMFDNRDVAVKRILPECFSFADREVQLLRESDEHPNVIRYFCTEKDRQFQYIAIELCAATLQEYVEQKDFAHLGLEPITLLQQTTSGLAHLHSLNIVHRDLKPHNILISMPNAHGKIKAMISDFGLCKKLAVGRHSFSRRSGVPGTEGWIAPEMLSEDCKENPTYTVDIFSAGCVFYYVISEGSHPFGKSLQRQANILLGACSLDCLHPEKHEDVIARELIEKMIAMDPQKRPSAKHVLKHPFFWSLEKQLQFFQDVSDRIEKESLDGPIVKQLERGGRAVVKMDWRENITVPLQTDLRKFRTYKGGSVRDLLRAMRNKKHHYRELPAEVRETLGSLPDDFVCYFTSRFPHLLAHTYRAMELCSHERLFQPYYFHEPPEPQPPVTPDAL

recombinant dephosphorylated G547 IRE1α KEN domain, sequence (O75460 547-977): as above

As a reminder, the IC50 is the point on the concentration scale where inhibition reaches its midpoint. Regarding `Fc1cc(F)cc(Cn2cc(-c3ccnc4[nH]cnc34)cn2)c1` [Control A, 7-(1-(3,5-difluorobenzyl)-1H-pyrazol-4-yl)-3H-imidazo[4,5-b]pyridine, reference compound], the IC50 is greater than 50 µM in data set [1], 3280 nM in data set [2], 6.2 µM in data set [3] and 3110 nM in data set [4].

`CC(C)Nc1cc(Cl)nn2c(-c3ccc4[nH]ncc4c3)cnc12` [compound 33]: the IC50 in data set [2] was found to be 736 nM; in data set [4], 276 nM.
